According to patent US11052098B2, “Composition containing araloside for external application to skin” (Amorepacific Corporation, priority 2015, dated 2021):

Columns and labels:
[1] = system: keratin 1; assay: Recovery of keratin 1 marker gene expression in fine dust-treated keratinocytes (quantitative real-time PCR); type: cell-based; conditions: Human neonatal epidermal keratinocytes; 100 ppm fine dust 24 hours, then 50 ppm araloside for 5 days; FIG. 1; compared to fine dust only and untreated group
Method: (§1) Human neonatal epidermal keratinocytes (HEK; Lonza, NHEK-Neo-Neonatal Normal. Human Epidermal Keratinocytes, Pooled) were dispensed in medium (KBM-gold, Lonza) in a 6-well plate at a density of 1×10^5 cells per well and cultured at 37° C. for 24 hours. 100 ppm of fine dust was treated in the well and subjected to stimulation for 24 hours, which was then treated with medium (KBM-gold, Lonza) containing 50 ppm each of […] and araloside X and incubated at 37° C. for 5 days. Then, RNA was extracted from the HEK cells incubated for 5 days using an RNeasy mini kit (Qiagen), and then a cDNA was synthesized through an RT-PCR process using a Superscript III kit (Invitrogen). To confirm the expression level of keratin 1 and keratin 10 genes, a probe (TaqMan™ fluorogenic probe, Hs00196158_m1, Hs00166289_m1) was used to conduct the quantitative real-time PCR process and observe the expression behavior of keratin 1 and keratin. 10. The control group used an untreated group not treated with fine dust and also not treated with araloside V, araloside VII and araloside X; and fine dust-treated group treated with fine dust but not, treated with araloside V, araloside VII and araloside X.

[2] = system: MMP-1; assay: MMP-1 inhibitory effect in fine dust- and UVB-treated Hs68 fibroblasts (MMP-1 assay kit); type: cell-based, Human; conditions: 100 ppm fine dust 24 hours, UVB 30 mJ/M^2, then 50 ppm araloside for 48 hours, FIG. 2, compared to fine dust only and untreated group
Method: Human neonatal fibroblast HS68 was purchased from Cascade Biologics (Invitrogen, USA) and used. Hs68 was cultured using DMEM medium supplemented with 10% FBS (fetal bovine serum), 50 U/ml of penacillin and 50 μg/ml of streptomycin. Cells were cultured under the conditions of 37° C., 5% CO2. The Hs68 was added to a 12-well plate at a concentration of 7.5×10^4 cells/well and cultured overnight. On the next day, the medium was replaced with FBS-free medium having a fine dust concentration of 100 ppm and cultured for 24 hours. After irradiating with UVB 30 mJ/M^2, the araloside V, araloside VII, and araloside X were treated at a concentration of 50 ppm for 48 hours, respectively. After culture, the medium was collected and the production amount of MMP-1 was measured using an MMP-1 assay kit (GE healthcare). The control group used an untreated group not treated with fine dust and also not treated with araloside V, araloside VII and araloside X; and a fine dust-treated group treated with fine dust but not treated with araloside V, araloside VII and araloside X.

[3] = system: IL1B; assay: IL1B protein production in fine dust-stimulated human fibroblasts (ELISA); type: cell-based; conditions: 100 ppm fine dust 24 hours, then sample 50 ppm for 48 hours, culture solution ELISA, fine dust only = 311
Method: (§2) Human fibroblasts (PromoCell, Germany) were inoculated in a 6-well plate at a concentration of 1×10^5 cells, and cultured in an incubator (37° C., 5% CO2) for 24 hours. 100 ppm of fine dust was treated in the well and subjected to stimulation for 24 hours, which was then treated with medium containing 50 ppm each of araloside V, araloside VII and araloside X and allowed to react for 48 hours. After completion of the reaction, the culture solution was collected and subjected to ELISA analysis. At this time, α-bisabolol, a substance frequently used as an anti-inflammatory and irritation-mitigating agent, was used as a control group. Measurement of the production amount of IL8 and IL1B proteins was carried out using a ThermoFisher's kit, and experiments were conducted according to the method described in the company's manual.

[4] = system: Reactive Oxygen Species (ROS); assay: Inhibitory effect on reactive oxygen species (ROS) production in fine dust-stimulated keratinocytes (DCF-DA fluorescence); type: cell-based; conditions: human keratinocytes; sample 50 ppm for 2 hours, then treated with 100 ppm of fine dust; vehicle control = 100, fine dust only = 384
Method: 5×10^4 Keratinocytes isolated from human epidermal tissue were added to each well of a 24-well plate and allowed to adhere for 24 hours. Then, […] and araloside X were treated at 50 ppm, respectively. At this time, for comparison, a control group (untreated group) was not treated with araloside V, araloside VII and araloside X, and a positive control group was treated with a known antioxidant ascorbic acid. After 2 hours, the culture solution was removed, and then 100 μl of phosphate buffered saline (PBS) containing 100 ppm of fine dust was added to each well. Then, the amount of active oxygen species increased by fine dust stimulation was quantified. The amount of ROS was quantified with reference to Tan's method of measuring the fluorescence of DCF-DA (dichlorofluorescin diacetate) oxidized by ROS (Tan et al., 1998, J. Cell Biol. Vol. 141, pp 1423-1432).

[5] = system: keratin 10; assay: Recovery of keratin 10 marker gene expression in fine dust-treated keratinocytes (quantitative real-time PCR); type: cell-based; conditions: Human neonatal epidermal keratinocytes; 100 ppm fine dust 24 hours, then 50 ppm araloside for 5 days; FIG. 1; compared to fine dust only and untreated group
Method: as §1

[6] = system: IL8; assay: IL8 protein production in fine dust-stimulated human fibroblasts (ELISA); type: cell-based; conditions: 100 ppm fine dust 24 hours, then sample 50 ppm for 48 hours, culture solution ELISA, fine dust only = 246
Method: as §2

Compound	expression of keratin 1 gene [1]	MMP-1 activity (production amount of MMP-1) [2]	IL1B (production amount of protein) [3] [pg/mL]	amount of ROS, ratio to control group treated with only vehicle (=100) [4]	expression of keratin 10 gene [5]	IL8 (production amount of protein) [6] [pg/mL]
CC1(C)CC[C@]2(C(=O)O[C@@H]3O[C@H](CO)[C@@H](O)[C@H](O)[C@H]3O)CC[C@]3(C)C(=CC[C@@H]4[C@@]5(C)CC[C@H](O[C@@H]6O[C@H](CO)[C@@H](O)[C@H](O[C@@H]7O[C@H](CO)[C@@H](O)[C@H](O)[C@H]7O)[C@H]6O[C@@H]6O[C@H](CO)[C@@H](O)[C@H](O)[C@H]6O)[C@@](C)(CO)[C@@H]5CC[C@]43C)[C@@H]2C1 [araloside VII]	a level equal to or higher than that in the untreated group	to about the level of MMP-1 activity in the untreated (control) group	256	105	a level equal to or higher than that in the untreated group	184
CC1(C)CC[C@]2(C(=O)O[C@@H]3O[C@H](CO)[C@@H](O)[C@H](O)[C@H]3O)CC[C@]3(C)C(=CC[C@@H]4[C@@]5(C)CC[C@H](O[C@H]6O[C@H](CO)[C@@H](O)[C@@H](O[C@@H]7O[C@H](CO)[C@@H](O)[C@H](O)[C@H]7O)[C@H]6O[C@@H]6O[C@H](CO)[C@@H](O)[C@H](O)[C@H]6O)C(C)(C)[C@@H]5CC[C@]43C)[C@@H]2C1 [araloside V]	a level equal to or higher than that in the untreated group	to about the level of MMP-1 activity in the untreated (control) group	243	110	a level equal to or higher than that in the untreated group	189
α-bisabolol [reference compound]			214			180
O=C1O[C@H]([C@@H](O)CO)C(O)=C1O [ascorbic acid, reference compound]				200		
CC1(C)CC[C@]2(C(=O)O[C@@H]3O[C@H](CO)[C@@H](O)[C@H](O)[C@H]3O)CC[C@]3(C)C(=CC[C@@H]4[C@@]5(C)CC[C@H](O[C@@H]6O[C@H](CO)[C@@H](O)[C@H](O[C@@H]7O[C@H](CO)[C@@H](O)[C@H](O[C@@H]8O[C@H](CO)[C@@H](O)[C@H](O)[C@H]8O)[C@H]7O)[C@H]6O[C@@H]6O[C@H](CO)[C@@H](O)[C@H](O)[C@H]6O)C(C)(C)[C@@H]5CC[C@]43C)[C@@H]2C1 [araloside X]	a level equal to or higher than that in the untreated group	to about the level of MMP-1 activity in the untreated (control) group	252	102	a level equal to or higher than that in the untreated group	187
